The values below come from patent EP0558245A1, “Heterobicyclic compounds as antagogists of alpha-1 adrenergic and SHT1A receptors” (priority 1992, dated 1993).

One data set has as its system diastolic blood pressure. Nature of the data set: Effects on blood pressure in anaesthetized dogs. It counts as in vivo. Conditions: Canis lupus familiaris, iv. An excerpt:
(§1) In order to monitor systemic blood pressure (BP), a PE catheter was introduced into the aortic arch through the right common carotid artery.
(§2) A collateral of the left femoral vein was cannulated for infusion of anaesthetic, and the right femoral vein was cannulated for administration of drugs. For intrarterial (i.a.) injection of noradrenaline (NA), a PE catheter was introduced into the lower portion of abdominal aorta via the right external iliac artery. Through such procedure, NA was selectively distributed to the lower urinary tract. Via a midline laparotomy, the urinary bladder and proximal urethra were exposed. In order to prevent the filling of the bladder, the two ureters were cannulated and the urine led outside. In order to record the prostatic urethral pressure, a Mikro-tip catheter (6 F) was introduced into the bladder via the external urethral meatus, and withdrawn until the pressure transducer was positioned in the prostatic urethra. A ligature was secured between the neck of the bladder and urethra to isolate the response of the latter and avoid any interaction with the bladder. Another ligature was put around the Mikro-tip catheter at the external urethral meatus, to secure the catheter itself. After a stabilizing period following surgical procedure (30 min), in which arterial and prostatic urethral pressure were continuously monitored as basal values, i.a. administration of NA was made at intervals of 10 min. The dose of NA chosen was such to produce an increase of at least 100% in urethral pressure. The test compounds were administered i.v. in a cumulative manner with intervals of 15-20 min between administrations. I.a. injections of NA were repeated approximately 5 min. after every dosing of test compound. Dose response curves were constructed computing the percentage inhibition to the increase in urethral pressure (NA induced), and the percentage drop in blood pressure produced by the test compound.

Data set [1] relates to noradrenaline induced contraction of urethra. Nature of the data set: Effects on urethral contractions (noradrenaline-induced) in anaesthetized dogs. Type of data set: in vivo. The following applies: for ED50: Canis lupus familiaris, iv; for DBP/Urethra ratio: ratio between the active doses (selectivity index), * = non-selective: substantial effect on both urethra and DBP.
Excerpt: as §1, §2

Data set [2] in a line: Acute toxicity in mice after intraperitoneal and oral administration. The following applies: mouse, in vivo. A digest of the protocol:
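Female albino Swiss mice (20-30 g) dosed i.p. or orally at four log-scaled doses in 0.5% Methocel (10 ml/kg), 4 mice/dose. Mortality recorded at 7 days; LD₅₀ with fiducial limits by Weil's method.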

The target of another data set is α₁ receptors. Nature of the data set: [3H]prazosin binding (α1 receptors), rat cerebral cortex membranes. Conditions: for IC50: rat cerebral cortex crude membranes, [3H]prazosin 0.35 nM, 25°C 30 min, read-out: Receptor Binding IC50 (nM) α1.
The test system of the next data set is rat bladder strips. Nature of the data set: K+-induced contractions of rat bladder strips. It counts as cell-based. The following applies: 80 mM KCl, drug added 30 minutes before. How it is done: The whole bladder of the rat was removed and immediately placed in Krebs solution warmed at 37°C. […] Each strip was placed in a 10 ml organ bath and connected, under a constant load of 1 g, to an isometric strain gauge (DY-1 Basile, Comerio, Varese, Italy). […] After a 60 minutes equilibration period the strips were exposed to 80 mM KCl (final concentration). […] When the tonic contraction was stable, the strips were washed and 30 minutes later a new contraction was induced. After having recorded two or more reproducible responses, one concentration of the tested drugs was added to the bath and 30 minutes later a new contraction was induced. The experimental groups consisted of at least two preparations taken from different animals for each concentration of drug tested. The IC₅₀ values of inhibition of agonist-induced contractions were evaluated by linear regression analysis.

The target of a further data set is T1, 5HT1A receptors (Rattus norvegicus, UniProt P19327).
T1 construct: Rat hippocampi were homogenized; from tissue; host or cells: rat hippocampus membranes
T1 sequence (P19327 1-422): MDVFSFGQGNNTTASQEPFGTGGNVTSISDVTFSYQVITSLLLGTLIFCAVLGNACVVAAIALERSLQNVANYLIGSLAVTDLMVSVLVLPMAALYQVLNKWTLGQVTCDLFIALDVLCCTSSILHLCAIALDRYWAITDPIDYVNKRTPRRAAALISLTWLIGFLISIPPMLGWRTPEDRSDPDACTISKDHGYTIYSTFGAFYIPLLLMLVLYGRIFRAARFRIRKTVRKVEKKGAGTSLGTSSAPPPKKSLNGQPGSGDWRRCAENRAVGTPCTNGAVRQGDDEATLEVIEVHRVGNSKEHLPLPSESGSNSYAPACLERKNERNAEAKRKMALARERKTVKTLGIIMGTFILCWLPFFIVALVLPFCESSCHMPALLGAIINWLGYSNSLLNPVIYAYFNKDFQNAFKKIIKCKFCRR
Nature of the data set: [3H]8-OH-DPAT binding (5HT1A receptors), rat hippocampus membranes. Conditions: for IC50: rat hippocampus crude membranes, [3H]8-OH-DPAT 1.0 nM, 25°C 30 min, read-out: Receptor Binding IC50 (nM) 5-HT1a.

The mark [3] stands for this setting: ip, female albino Swiss mice, intraperitoneal, mortality recorded 7 days after administration, read-out: Acute Toxicity in Mice LD50 (mg/kg) i.p.
Where [4] appears, read: female albino Swiss mice, oral, mortality recorded 7 days after administration, read-out: Acute Toxicity in Mice LD50 (mg/kg) p.o.
[5] abbreviates: phasic contraction, read-out: K+ Stimulation of Rat Bladder IC50 (μM) Contractions Phasic.
The mark [6] stands for this setting: tonic contraction, read-out: K+ Stimulation of Rat Bladder IC50 (μM) Contractions Tonic.
[7] abbreviates: anaesthetized male beagle dogs, i.v. cumulative, active dose in lowering diastolic blood pressure by 25%, read-out: DBP ED25.
The mark [8] stands for this setting: anaesthetized male beagle dogs, i.v. cumulative, active dose in inhibiting by 50% the noradrenaline induced contraction of urethra, read-out: Urethra ED50.

Structures can show the parent of a compound that is named as a salt. Where two headings read alike, the source gives them in different places.

Experimental for 5HT1A receptors: Rat hippocampi were homogenized in 50 volumes of original wet weight of ice-cold 50 mM Tris-HCl buffer pH 7.4. The homogenates were centrifuged at 48,000 x g for 10 minutes, and the pellets were resuspended in the same volume of ice-cold buffer, incubated for 10 minutes at 37°C, centrifuged and resuspended two more times. The final pellets obtained were resuspended in the same volume of buffer and incubated according to the conditions reported in the table below.
The incubations were terminated after the appropriate time (see table) by rapid filtration through Whatman GF/B filters using a Brandel cell harvester. The filters were washed twice with 15 ml of ice-cold buffer (see table). The radioactivity retained on the filters was determined by liquid scintillation counting. Nonspecific binding (which amounted generally to 10-30%) was evaluated by adding high concentrations of the specific displacers (see table). All the compounds were initially tested at 1x10⁻⁶ M concentration, and in the presence of significant displacing activity, a complete competition curve was generated (down to a concentration of 10⁻¹¹ M). All the samples were run in triplicate.
The competition curves were always analyzed (to evaluate the IC₅₀ values) by non linear curve fitting of the logistic equation according to the method reported by De Lean et al. (Am. J. Physiol., 235, E97, 1978), utilizing the ALLFIT program [publically available from the National Institutes of Health (N.I.H.) Bethesda, Maryland, USA] written for the IBM PC.

For `COc1ccccc1N1CCN(CCCCOc2cccc3c(=O)c(C)c(-c4ccccc4)oc23)CC1.Cl.Cl`, the ED25 with diastolic blood pressure (read-out: DBP ED25 (µg/kg)) is 745 µg/kg. The ED50 in data set [1] (read-out: Urethra ED50 (µg/kg)) amounted to 57 µg/kg. Further, the DBP/Urethra ratio in data set [1] amounted to 13.1. The LD50 at 168 h in data set [2] (ip, read-out: Acute Toxicity in Mice LD50 (mg/kg) i.p.) was 399 mg/kg; in data set [2] (po, read-out: Acute Toxicity in Mice LD50 (mg/kg) p.o.) it was 2240 mg/kg.
Usually IC50 stands for the midpoint of a concentration-inhibition curve. Regarding `COc1ccccc1N1CCN(CCCNc2cccc3c(=O)c(C)c(-c4ccccc4)oc23)CC1` [Example 33, 8-{3-[4-(2-methoxyphenyl)-1-piperazinyl]-propylamino}-3-methyl-4-oxo-2-phenyl-4H-1-benzopyran hydrochloride 2.75-hydrate], the LD50 at 168 h in data set [2] (setting [3]) was 399 mg/kg; in data set [2] (setting [4]) it was more than 2000 mg/kg. Besides, the IC50 at α₁ receptors stood at 17 nM; in the data set on rat bladder strips (setting [5]), 10 µM; with rat bladder strips (setting [6]), 10 µM; at 5HT1A receptors, 38 nM.
In the case of `Cc1c(-c2ccccc2)oc2c(C(=O)OCCN3CCCCC3)cccc2c1=O` [Flavoxate, 8-(2-piperidinoethoxycarbonyl)-3-methyl-4-oxo-2-phenyl-4H-1-benzopyran, reference compound], the LD50 at 168 h was found to be 385 mg/kg in data set [2] (setting [3]) and 808 mg/kg in data set [2] (setting [4]). Further, the IC50 at α₁ receptors was more than 1000 nM; with rat bladder strips (setting [5]) it was 13 µM; in the data set with rat bladder strips (setting [6]), 13 µM; at 5HT1A receptors, more than 1000 nM. Moreover, the “affinity for the α₁-adrenergic receptors” value with α₁ receptors (statement in words) is “practically devoid of affinity”. Further, on 5HT1A receptors (statement in words), the “affinity for the 5HT1A-serotoninergic receptors” value is “practically devoid of affinity”.
On to `COc1ccccc1N1CCN(CCCS(=O)(=O)c2cccc3c(=O)c(C)c(-c4ccccc4)oc23)CC1.Cl` [Example 47, 8-{3-[4-(2-methoxyphenyl)-1-piperazinyl]-propylsulphonyl}-3-methyl-4-oxo-2-phenyl-4H-1-benzopyran hydrochloride], for which the ED25 with diastolic blood pressure (setting [7]) came to 530 µg/kg. Further, the ED50 in data set [1] (setting [8]) came out at 35 µg/kg. Also, the DBP/Urethra ratio in data set [1] was 15.1. For the same compound, the LD50 at 168 h in data set [2] (setting [3]) worked out at 330 mg/kg; in data set [2] (setting [4]) it was 1050 mg/kg. Also, the IC50 on α₁ receptors came to 36 nM; in the data set with rat bladder strips (setting [5]), 2.7 µM; with rat bladder strips (setting [6]), 5.2 µM; at 5HT1A receptors it was 23 nM.
Turning to `COc1ccccc1N1CCN(CCC(O)c2cccc3c(=O)c(C)c(-c4ccccc4)oc23)CC1.Cl` (centres unmarked) [Example 20, 8-{1-Hydroxy-3-[4-(2-methoxyphenyl)-1-piperazinyl]-propyl}-3-methyl-4-oxo-2-phenyl-4H-1-benzopyran hydrochloride], the figures for the LD50 at 168 h in data set [2] (setting [3]) and in data set [2] (setting [4]) were 297 mg/kg and 594 mg/kg, respectively. For the same compound, the IC50 at α₁ receptors stood at 169 nM; in the data set on rat bladder strips (setting [5]), 2.7 µM; in the data set on rat bladder strips (setting [6]), 2.5 µM; at 5HT1A receptors it was 85 nM.
On to `COc1ccccc1N1CCN(CCN(C)C(=O)c2cccc3c(=O)c(C)c(-c4ccccc4)oc23)CC1.Cl` [Example 16, 8-{N-methyl-2-[4-(2-methoxyphenyl)-1-piperazinyl]-ethylcarbamoyl}-3-methyl-4-oxo-2-phenyl-4H-1-benzopyran monohydrochloride], for which the figures for the LD50 at 168 h in data set [2] (setting [3]) and in data set [2] (setting [4]) were 345 mg/kg and 778 mg/kg, respectively. Also, the IC50 on α₁ receptors amounted to 220 nM; with rat bladder strips (setting [5]), 1.6 µM; in the data set with rat bladder strips (setting [6]), 2.2 µM; on 5HT1A receptors, 1050 nM.
`COc1cc2nc(N3CCN(C(=O)c4ccco4)CC3)nc(N)c2cc1OC` [Prazosin, 1-(4-amino-6,7-dimethoxy-2-quinazonlinyl)-4-(2-furoyl)-piperazine, reference compound]: the ED25 with diastolic blood pressure (read-out: DBP ED25 (µg/kg)) is 6.6 µg/kg. For the same compound, the ED50 in data set [1] (setting [8]) came to 3.6 µg/kg. Also, the DBP/Urethra ratio in data set [1] is listed as 1.8*. Besides, the “selectivity for the mammalian lower urinary tract (antagonizing urethral contractions versus lowering blood pressure)” value in data set [1] (statement in words) was “do not exhibit such selectivity”.
`Cc1c(-c2ccccc2)oc2c(C(=O)OC(C)(C)CN3CCCCC3)cccc2c1=O.Cl` [Terflavoxate, 8-(1,1-dimethyl-2-piperidino-ethoxycarbonyl)-3-methyl-4-oxo-2-phenyl-4H-1-benzopyran hydrochloride, reference compound]: in the data set on diastolic blood pressure (setting [7]), the ED25 worked out at 6060 µg/kg. Moreover, in data set [1] (setting [8]), the ED50 is more than 10000 µg/kg. The “effect on urethral contractions” value in data set [1] (statement in words) is reported as “no effect on urethral contractions”.
With `COc1ccccc1N1CCN(CC(O)COc2cccc3c(=O)c(C)c(-c4ccccc4)oc23)CC1.Cl` (centres unmarked) [Example 45, 8-{2-hydroxy-3-[4-(2-methoxyphenyl)-1-piperazinyl]-propoxy}-3-methyl-4-oxo-2-phenyl-4H-1-benzopyran hydrochloride], the ED25 with diastolic blood pressure (setting [7]) turned out to be 186 µg/kg. In data set [1] (setting [8]), the ED50 is 16.4 µg/kg. In data set [1], the DBP/Urethra ratio came to 11.3. Also, the LD50 at 168 h in data set [2] (setting [3]) came out at 329 mg/kg; in data set [2] (setting [4]), 1730 mg/kg. Further, the figures for the IC50 on α₁ receptors and on 5HT1A receptors were 15 nM and 106 nM, respectively.
For the compound `COc1ccccc1N1CCN(CCCOC(=O)c2cccc3c(=O)c(C)c(-c4ccccc4)oc23)CC1.Cl.Cl` [Example 5, 8-{3-[4-(2-methoxyphenyl)-1-piperazinyl]-propoxycarbonyl}-3-methyl-4-oxo-2-phenyl-4H-1-benzopyran dihydrochloride], the ED25 with diastolic blood pressure (setting [7]) worked out at 1070 µg/kg. In addition, the ED50 in data set [1] (setting [8]) was 37 µg/kg. In addition, the DBP/Urethra ratio in data set [1] is 29.0. The LD50 at 168 h is 621 mg/kg in data set [2] (setting [3]) and more than 3000 mg/kg in data set [2] (setting [4]). Also, the IC50 at α₁ receptors was 20 nM; at 5HT1A receptors, 19 nM.
On to `COc1ccccc1N1CCN(CCCC(O)c2cccc3c(=O)c(C)c(-c4ccccc4)oc23)CC1.Cl.O` (centres unmarked) [Example 21, 8-{1-hydroxy-4-[4-(2-methoxyphenyl)-1-piperazinyl]-butyl}-3-methyl-4-oxo-2-phenyl-4H-1-benzopyran hydrochloride monohydrate], for which the ED25 in the data set on diastolic blood pressure (read-out: DBP ED25 (µg/kg)) stood at 127 µg/kg. For the same compound, in data set [1] (read-out: Urethra ED50 (µg/kg)), the ED50 was determined as 6.6 µg/kg. The DBP/Urethra ratio in data set [1] amounted to 19.2. Moreover, the results for the LD50 at 168 h in data set [2] (setting [3]) and in data set [2] (setting [4]) were 297 mg/kg and 566 mg/kg, respectively. The half-inhibitory concentration (IC50) on α₁ receptors was determined as 17 nM; on 5HT1A receptors, 33 nM.
Turning to `COc1ccccc1N1CCN(CCSCc2cccc3c(=O)c(C)c(-c4ccccc4)oc23)CC1.Cl` [Example 29, 8-{2-[4-(2-methoxyphenyl)-1-piperazinyl]-ethylthiomethyl}-3-methyl-4-oxo-2-phenyl-4H-1-benzopyran hydrochloride], the LD50 at 168 h in data set [2] (setting [3]) was 730 mg/kg; in data set [2] (setting [4]), more than 3000 mg/kg. Besides, the IC50 on α₁ receptors came out at 86 nM; in the data set with rat bladder strips (setting [5]) it was 10 µM; in the data set on rat bladder strips (setting [6]) it was 10 µM; on 5HT1A receptors it was 45 nM.
